Laboratory results from PubChem BioAssay (NCI).
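At the GI50, growth is halved. TGI denotes the concentration required for complete inhibition of growth.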

Tests used:
Test in all cases: inhibition of tumour cell growth, NCI panel, 384-well format
NCI-H460 NSCLC = tested on: NCI-H460 NSCLC
NCI-H522 lung = tested on: NCI-H522 lung
NCI/ADR-RES ovarian = tested on: NCI/ADR-RES ovarian
OVCAR-3 ovarian = tested on: OVCAR-3 ovarian
OVCAR-4 ovarian = tested on: OVCAR-4 ovarian
OVCAR-5 ovarian = tested on: OVCAR-5 ovarian
OVCAR-8 ovarian = tested on: OVCAR-8 ovarian
PC-3 prostate = tested on: PC-3 prostate
RPMI-8226 leukemia = tested on: RPMI-8226 leukemia
RXF 393 renal = tested on: RXF 393 renal
SF-268 CNS = tested on: SF-268 CNS
SF-295 CNS = tested on: SF-295 CNS
SF-539 CNS = tested on: SF-539 CNS
SK-MEL-28 melanoma = tested on: SK-MEL-28 melanoma
SK-MEL-5 melanoma = tested on: SK-MEL-5 melanoma
SK-OV-3 ovarian = tested on: SK-OV-3 ovarian
SN12C renal = tested on: SN12C renal
SNB-19 CNS = tested on: SNB-19 CNS
SNB-75 CNS = tested on: SNB-75 CNS
SR leukemia = tested on: SR leukemia
SW-620 colon = tested on: SW-620 colon
T-47D breast = tested on: T-47D breast
TK-10 renal = tested on: TK-10 renal
U251 glioblastoma = tested on: U251 glioblastoma
UACC-257 melanoma = tested on: UACC-257 melanoma
UACC-62 melanoma = tested on: UACC-62 melanoma
UO-31 renal = tested on: UO-31 renal

`C=CC(=O)N1CCCC(n2nc(-c3ccc(Oc4ccccc4)cc3)c3c(N)ncnc32)C1` (centres undefined) was tested, and the GI50 (NCI-H460 NSCLC) was 16.5 µM, the TGI (NCI-H460 NSCLC) was 30.1 µM and the GI50 (NCI-H522 lung) was 0.0178 µM. For the same compound, the TGI (NCI-H522 lung) was 0.0859 µM, the GI50 (NCI/ADR-RES ovarian) was 11.3 µM and the TGI (NCI/ADR-RES ovarian) was 23.5 µM. For the same compound, the GI50 (OVCAR-3 ovarian) was 2.05 µM, the TGI (OVCAR-3 ovarian) was 15.5 µM and the GI50 (OVCAR-4 ovarian) was 11.2 µM. For the same compound, the TGI (OVCAR-4 ovarian) was 23.3 µM, the GI50 (OVCAR-5 ovarian) was 18.7 µM and the TGI (OVCAR-5 ovarian) was 32.8 µM. The GI50 (OVCAR-8 ovarian) was 12.1 µM, the TGI (OVCAR-8 ovarian) was 24.6 µM and the GI50 (PC-3 prostate) was 14.8 µM. It also gave a TGI (PC-3 prostate) of 28.1 µM, a GI50 (RPMI-8226 leukemia) of 10.5 µM and a TGI (RPMI-8226 leukemia) of 22.4 µM. For the same compound, the GI50 (RXF 393 renal) was 1.18 µM, the TGI (RXF 393 renal) was 6.31 µM and the GI50 (SF-268 CNS) was 6.51 µM. It also gave a TGI (SF-268 CNS) of 20 µM, a GI50 (SF-295 CNS) of 14.7 µM and a TGI (SF-295 CNS) of 27.9 µM. It also gave a GI50 (SF-539 CNS) of 11.3 µM, a TGI (SF-539 CNS) of 23.4 µM and a GI50 (SK-MEL-28 melanoma) of 17.3 µM. For the same compound, the TGI (SK-MEL-28 melanoma) was 31.2 µM, the GI50 (SK-MEL-5 melanoma) was 10.9 µM and the TGI (SK-MEL-5 melanoma) was 23 µM. It also gave a GI50 (SK-OV-3 ovarian) of 2.87 µM, a TGI (SK-OV-3 ovarian) of 20.5 µM and a GI50 (SN12C renal) of 2.71 µM. For the same compound, the TGI (SN12C renal) was 16.5 µM, the GI50 (SNB-19 CNS) was 15 µM and the TGI (SNB-19 CNS) was 28.4 µM. For the same compound, the GI50 (SNB-75 CNS) was 5.51 µM, the TGI (SNB-75 CNS) was 14 µM and the GI50 (SR leukemia) was 5.35 µM. For the same compound, the TGI (SR leukemia) was 18.4 µM, the GI50 (SW-620 colon) was 18.4 µM and the TGI (SW-620 colon) was 32.5 µM. The GI50 (T-47D breast) was 0.0148 µM, the TGI (T-47D breast) was 17.7 µM and the GI50 (TK-10 renal) was 0.479 µM. The TGI (TK-10 renal) was 12.1 µM, the GI50 (U251 glioblastoma) was 14 µM and the TGI (U251 glioblastoma) was 27.1 µM. The GI50 (UACC-257 melanoma) was 10.6 µM, the TGI (UACC-257 melanoma) was 22.5 µM and the GI50 (UACC-62 melanoma) was 5.71 µM. For the same compound, the TGI (UACC-62 melanoma) was 18.7 µM, the GI50 (UO-31 renal) was 6.11 µM and the TGI (UO-31 renal) was 19.9 µM.
